Laboratory results from patent US20240415914A1, “Water Dispersible Cannabinoid Compositions” (priority 2021, published 2024).

Assay: Stability of cannabinoid and Vitamin E components of Beverage 1 (AB White) stored at 8° C. and 21-25° C., LCMSMS over 570 days
Type: physicochemical
Details: for Stability in AB White, 8° C. (content by LCMSMS): beverage stored at 8° C.; for Stability in AB White, 21-25° C. (content by LCMSMS): beverage stored at 21-25° C.
Method: The LCMSMS was calibrated for 0-1000 ng/ml cannabinoids with the same resin material used in the preparation of the concentrates. At each time period, 100 ml of beverage was diluted with 10 ml of methanol and injected into the LCMSMS for analysis.

CCCCCc1cc2c(c(O)c1C(=O)O)[C@@H]1C=C(C)CC[C@H]1C(C)(C)O2 [D9 THCA, delta-9-tetrahydrocannabinolic acid]
Stability in AB White, 8° C. (content by LCMSMS) (day 0): 0.950 µg/mL
Stability in AB White, 8° C. (content by LCMSMS) (day 1): 0.956 µg/mL
Stability in AB White, 8° C. (content by LCMSMS) (day 2): 0.954 µg/mL
Stability in AB White, 8° C. (content by LCMSMS) (day 3): 0.934 µg/mL
Stability in AB White, 8° C. (content by LCMSMS) (day 5): 0.956 µg/mL
Stability in AB White, 8° C. (content by LCMSMS) (day 8): 0.949 µg/mL
Stability in AB White, 8° C. (content by LCMSMS) (day 9): 0.937 µg/mL
Stability in AB White, 8° C. (content by LCMSMS) (day 10): 0.960 µg/mL
Stability in AB White, 8° C. (content by LCMSMS) (day 11): 0.929 µg/mL
Stability in AB White, 8° C. (content by LCMSMS) (day 12): 0.942 µg/mL
Stability in AB White, 8° C. (content by LCMSMS) (day 15): 0.944 µg/mL
Stability in AB White, 8° C. (content by LCMSMS) (day 16): 0.932 µg/mL
Stability in AB White, 8° C. (content by LCMSMS) (day 17): 0.951 µg/mL
Stability in AB White, 8° C. (content by LCMSMS) (day 18): 0.950 µg/mL
Stability in AB White, 8° C. (content by LCMSMS) (day 19): 0.959 µg/mL
Stability in AB White, 8° C. (content by LCMSMS) (day 22): 0.960 µg/mL
Stability in AB White, 8° C. (content by LCMSMS) (day 23): 0.931 µg/mL
Stability in AB White, 8° C. (content by LCMSMS) (day 24): 0.926 µg/mL
Stability in AB White, 8° C. (content by LCMSMS) (day 25): 0.957 µg/mL
Stability in AB White, 8° C. (content by LCMSMS) (day 26): 0.956 µg/mL
Stability in AB White, 8° C. (content by LCMSMS) (day 29): 0.939 µg/mL
Stability in AB White, 8° C. (content by LCMSMS) (day 30): 0.955 µg/mL
Stability in AB White, 8° C. (content by LCMSMS) (day 60): 0.914 µg/mL
Stability in AB White, 8° C. (content by LCMSMS) (day 90): 0.948 µg/mL
Stability in AB White, 8° C. (content by LCMSMS) (day 120): 0.932 µg/mL
Stability in AB White, 8° C. (content by LCMSMS) (day 150): 0.952 µg/mL
Stability in AB White, 8° C. (content by LCMSMS) (day 180): 0.941 µg/mL
Stability in AB White, 8° C. (content by LCMSMS) (day 210): 0.923 µg/mL
Stability in AB White, 8° C. (content by LCMSMS) (day 240): 0.932 µg/mL
Stability in AB White, 8° C. (content by LCMSMS) (day 270): 0.933 µg/mL
Stability in AB White, 8° C. (content by LCMSMS) (day 300): 0.939 µg/mL
Stability in AB White, 8° C. (content by LCMSMS) (day 330): 0.909 µg/mL
Stability in AB White, 8° C. (content by LCMSMS) (day 360): 0.913 µg/mL
Stability in AB White, 8° C. (content by LCMSMS) (day 390): 0.923 µg/mL
Stability in AB White, 8° C. (content by LCMSMS) (day 420): 0.916 µg/mL
Stability in AB White, 8° C. (content by LCMSMS) (day 450): 0.923 µg/mL
Stability in AB White, 8° C. (content by LCMSMS) (day 480): 0.905 µg/mL
Stability in AB White, 8° C. (content by LCMSMS) (day 510): 0.873 µg/mL
Stability in AB White, 8° C. (content by LCMSMS) (day 540): 0.877 µg/mL
Stability in AB White, 8° C. (content by LCMSMS) (day 570): 0.872 µg/mL
Stability in AB White, 21-25° C. (content by LCMSMS) (day 0): 0.950 µg/mL
Stability in AB White, 21-25° C. (content by LCMSMS) (day 1): 0.960 µg/mL
Stability in AB White, 21-25° C. (content by LCMSMS) (day 2): 0.938 µg/mL
Stability in AB White, 21-25° C. (content by LCMSMS) (day 3): 0.920 µg/mL
Stability in AB White, 21-25° C. (content by LCMSMS) (day 5): 0.958 µg/mL
Stability in AB White, 21-25° C. (content by LCMSMS) (day 8): 0.937 µg/mL
Stability in AB White, 21-25° C. (content by LCMSMS) (day 9): 0.926 µg/mL
Stability in AB White, 21-25° C. (content by LCMSMS) (day 10): 0.935 µg/mL
Stability in AB White, 21-25° C. (content by LCMSMS) (day 11): 0.949 µg/mL
Stability in AB White, 21-25° C. (content by LCMSMS) (day 12): 0.935 µg/mL
Stability in AB White, 21-25° C. (content by LCMSMS) (day 15): 0.948 µg/mL
Stability in AB White, 21-25° C. (content by LCMSMS) (day 16): 0.921 µg/mL
Stability in AB White, 21-25° C. (content by LCMSMS) (day 17): 0.919 µg/mL
Stability in AB White, 21-25° C. (content by LCMSMS) (day 18): 0.928 µg/mL
Stability in AB White, 21-25° C. (content by LCMSMS) (day 19): 0.917 µg/mL
Stability in AB White, 21-25° C. (content by LCMSMS) (day 22): 0.947 µg/mL
Stability in AB White, 21-25° C. (content by LCMSMS) (day 23): 0.924 µg/mL
Stability in AB White, 21-25° C. (content by LCMSMS) (day 24): 0.927 µg/mL
Stability in AB White, 21-25° C. (content by LCMSMS) (day 25): 0.948 µg/mL
Stability in AB White, 21-25° C. (content by LCMSMS) (day 26): 0.921 µg/mL
Stability in AB White, 21-25° C. (content by LCMSMS) (day 29): 0.922 µg/mL
Stability in AB White, 21-25° C. (content by LCMSMS) (day 30): 0.934 µg/mL
Stability in AB White, 21-25° C. (content by LCMSMS) (day 60): 0.896 µg/mL
Stability in AB White, 21-25° C. (content by LCMSMS) (day 90): 0.892 µg/mL
Stability in AB White, 21-25° C. (content by LCMSMS) (day 120): 0.894 µg/mL
Stability in AB White, 21-25° C. (content by LCMSMS) (day 150): 0.934 µg/mL
Stability in AB White, 21-25° C. (content by LCMSMS) (day 180): 0.945 µg/mL
Stability in AB White, 21-25° C. (content by LCMSMS) (day 210): 0.913 µg/mL
Stability in AB White, 21-25° C. (content by LCMSMS) (day 240): 0.892 µg/mL
Stability in AB White, 21-25° C. (content by LCMSMS) (day 270): 0.905 µg/mL
Stability in AB White, 21-25° C. (content by LCMSMS) (day 300): 0.888 µg/mL
Stability in AB White, 21-25° C. (content by LCMSMS) (day 330): 0.894 µg/mL
Stability in AB White, 21-25° C. (content by LCMSMS) (day 360): 0.925 µg/mL
Stability in AB White, 21-25° C. (content by LCMSMS) (day 390): 0.907 µg/mL
Stability in AB White, 21-25° C. (content by LCMSMS) (day 420): 0.909 µg/mL
Stability in AB White, 21-25° C. (content by LCMSMS) (day 450): 0.921 µg/mL
Stability in AB White, 21-25° C. (content by LCMSMS) (day 480): 0.873 µg/mL
Stability in AB White, 21-25° C. (content by LCMSMS) (day 510): 0.903 µg/mL
Stability in AB White, 21-25° C. (content by LCMSMS) (day 540): 0.877 µg/mL
Stability in AB White, 21-25° C. (content by LCMSMS) (day 570): 0.877 µg/mL
